Results published in ChEMBL document CHEMBL3046079, “Synthesis, herbicidal activity, and mode of action of IR 5790” (J Agric Food Chem, 2001).

Legend:
Persicaria maculosa = assay: Post-emergence herbicidal activity against Persicaria maculosa assessed as injury at 5 g/ha applied at 15 days post-sowing measured after 15 days relative to control; format: functional
Chenopodium album [1] = assay: Post-emergence herbicidal activity against Chenopodium album assessed as injury at 150 g/ha applied at 15 days post-sowing measured after 15 days relative to control; format: functional
Papaver rhoeas [2] = assay: Pre-emergence herbicidal activity against Papaver rhoeas assessed as injury at 50 g/ha applied at 24 hr post-sowing measured after 28 days relative to control; format: functional
Calystegia sepium = assay: Pre-emergence herbicidal activity against Calystegia sepium assessed as injury at 50 g/ha applied at 24 hr post-sowing measured after 28 days relative to control; format: functional
Solanum nigrum = assay: Post-emergence herbicidal activity against Solanum nigrum (black nightshade) assessed as injury at 150 g/ha applied at 15 days post-sowing measured after 15 days relative to control; format: functional
Ammi majus = assay: Pre-emergence herbicidal activity against Amni maius assessed as injury at 150 g/ha applied at 24 hr post-sowing measured after 28 days relative to control; format: functional
Amaranthus retroflexus = assay: Pre-emergence herbicidal activity against Amaranthus retroflexus assessed as injury at 50 g/ha applied at 24 hr post-sowing measured after 28 days relative to control; format: functional
Beta vulgaris = assay: Phytotoxicity against Beta vulgaris assessed as injury at 150 g/ha applied as post-emergent treatment at 15 days post-sowing measured after 15 days relative to control; format: organism-based; settings: in vivo, other, 360 h
Chenopodium album [3] = assay: Pre-emergence herbicidal activity against Chenopodium album assessed as injury at 150 g/ha applied at 24 hr post-sowing measured after 28 days relative to control; format: functional
Alopecurus myosuroides = assay: Post-emergence herbicidal activity against Alopecurus myosuroides assessed as injury at 150 g/ha applied at 15 days post-sowing measured after 15 days relative to control; format: functional
Capsella bursa-pastoris = assay: Pre-emergence herbicidal activity against Capsella bursa-pastoris assessed as injury at 50 g/ha applied at 24 hr post-sowing measured after 28 days relative to control; format: functional
Triticum aestivum [4] = assay: Phytotoxicity against Triticum aestivum (wheat) assessed as injury at 15 g/ha applied as post-emergent treatment at 15 days post-sowing measured after 15 days relative to control; format: organism-based; settings: in vivo, other, 360 h
Zea mays = assay: Phytotoxicity against Zea mays (maize) assessed as injury at 150 g/ha applied as post-emergent treatment at 15 days post-sowing measured after 15 days relative to control; format: organism-based; settings: in vivo, other, 360 h
Abutilon theophrasti = assay: Post-emergence herbicidal activity against Abutilon theophrasti (velvetleaf) assessed as injury at 15 g/ha applied at 15 days post-sowing measured after 15 days relative to control; format: functional
Echinochloa crus-galli = assay: Pre-emergence herbicidal activity against Echinochloa crus-galli (barnyard grass) assessed as injury at 150 g/ha applied at 24 hr post-sowing measured after 28 days relative to control; format: functional
Oryza sativa = assay: Phytotoxicity against Oryza sativa (rice) assessed as injury at 15 g/ha applied as post-emergent treatment at 15 days post-sowing measured after 15 days relative to control; format: organism-based; settings: in vivo, other, 360 h
Geranium dissectum = assay: Post-emergence herbicidal activity against Geranium dissectum assessed as injury at 50 g/ha applied at 15 days post-sowing measured after 15 days relative to control; format: functional
Sida spinosa = assay: Pre-emergence herbicidal activity against Sida spinosa assessed as injury at 50 g/ha applied at 24 hr post-sowing measured after 28 days relative to control; format: functional
Matricaria chamomilla [5] = assay: Post-emergence herbicidal activity against Matricaria chamomilla assessed as injury at 150 g/ha applied at 15 days post-sowing measured after 15 days relative to control; format: functional
Ipomoea purpurea = assay: Post-emergence herbicidal activity against Ipomoea purpurea (common morning-glory) assessed as injury at 5 g/ha applied at 15 days post-sowing measured after 15 days relative to control; format: functional
Digitaria sanguinalis [6] = assay: Post-emergence herbicidal activity against Digitaria sanguinalis (hairy crabgrass) assessed as injury at 150 g/ha applied at 15 days post-sowing measured after 15 days relative to control; format: functional
Stellaria media = assay: Pre-emergence herbicidal activity against Stellaria media assessed as injury at 50 g/ha applied at 24 hr post-sowing measured after 28 days relative to control; format: functional
Digitaria sanguinalis [7] = assay: Pre-emergence herbicidal activity against Digitaria sanguinalis (hairy crabgrass) assessed as injury at 50 g/ha applied at 24 hr post-sowing measured after 28 days relative to control; format: functional
Chenopodium album [8] = assay: Post-emergence herbicidal activity against Chenopodium album assessed as injury at 50 g/ha applied at 15 days post-sowing measured after 15 days relative to control; format: functional
Triticum aestivum [9] = assay: Phytotoxicity against Triticum aestivum (wheat) assessed as injury at 150 g/ha applied as pre-emergent treatment at 24 hr post-sowing measured after 28 days relative to control; format: organism-based; settings: in vivo, other, 672 h
Setaria viridis = assay: Post-emergence herbicidal activity against Setaria viridis (green foxtail) assessed as injury at 150 g/ha applied at 15 days post-sowing measured after 15 days relative to control; format: functional
[10] = target: T1, Putative protoporphyrinogen IX oxidase (Cucumis sativus) (UniProt C6L817); assay: Inhibition of protoporphyrin oxidase in Cucumis sativus (cucumber) cotyledon disc assessed as increase in extraplastidic protoporphyrin 9 accumulation at 100 uM incubated in dim light for 2 hr by HPLC analysis relative to control
T1 sequence (whole entry): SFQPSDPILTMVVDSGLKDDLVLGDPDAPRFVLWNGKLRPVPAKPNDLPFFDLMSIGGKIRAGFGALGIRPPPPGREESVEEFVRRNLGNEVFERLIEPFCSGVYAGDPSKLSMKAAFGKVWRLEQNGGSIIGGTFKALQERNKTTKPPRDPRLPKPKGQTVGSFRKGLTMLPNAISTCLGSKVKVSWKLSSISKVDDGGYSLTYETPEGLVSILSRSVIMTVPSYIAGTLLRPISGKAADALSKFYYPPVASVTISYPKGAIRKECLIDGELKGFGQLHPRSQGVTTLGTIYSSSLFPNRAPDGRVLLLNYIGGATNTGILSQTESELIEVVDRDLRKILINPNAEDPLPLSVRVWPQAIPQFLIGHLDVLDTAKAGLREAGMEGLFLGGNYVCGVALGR

Panicum dichotomiflorum = assay: Pre-emergence herbicidal activity against Panicum dichotomiflorum assessed as injury at 50 g/ha applied at 24 hr post-sowing measured after 28 days relative to control; format: functional
[11] = Toxicity in po dosed Rattus norvegicus (rat); format: organism-based; settings: in vivo
Matricaria chamomilla [12] = assay: Post-emergence herbicidal activity against Matricaria chamomilla assessed as injury at 50 g/ha applied at 15 days post-sowing measured after 15 days relative to control; format: functional
Papaver rhoeas [13] = assay: Post-emergence herbicidal activity against Papaver rhoeas assessed as injury at 50 g/ha applied at 15 days post-sowing measured after 15 days relative to control; format: functional
Avena fatua = assay: Post-emergence herbicidal activity against Avena fatua assessed as injury at 150 g/ha applied at 15 days post-sowing measured after 15 days relative to control; format: functional
Xanthium strumarium = assay: Pre-emergence herbicidal activity against Xanthium strumarium (cocklebur) assessed as injury at 150 g/ha applied at 24 hr post-sowing measured after 28 days relative to control; format: functional

C#CCOc1cc(-n2nc(C(C)(C)C)sc2=O)c(Cl)cc1Cl
Activity (Persicaria maculosa): 30% | Activity (Chenopodium album [1]): 90% | Activity (Papaver rhoeas [2]): 70% | Activity (Calystegia sepium): 0% | Activity (Solanum nigrum): 90% | Activity (Ammi majus): 0% | Activity (Amaranthus retroflexus): 50% | Activity (Beta vulgaris): 90% | Activity (Chenopodium album [3]): 90% | Activity (Alopecurus myosuroides): 70% | Activity (Capsella bursa-pastoris): 70% | Activity (Triticum aestivum [4]): 0% | Activity (Zea mays): 0% | Activity (Abutilon theophrasti): 30% | Activity (Echinochloa crus-galli): 70% | Activity (Oryza sativa): 0% | Activity (Geranium dissectum): 50% | Activity (Sida spinosa): 0% | Activity (Matricaria chamomilla [5]): 10% | Activity (Ipomoea purpurea): 50% | Activity (Digitaria sanguinalis [6]): 70% | Activity (Stellaria media): 0% | Activity (Digitaria sanguinalis [7]): 70% | Activity (Chenopodium album [8]): 90% | Activity (Triticum aestivum [9]): 0% | Activity (Setaria viridis): 70% | fold change (FC) [10]: 292 | Activity (Panicum dichotomiflorum): 90% | LD50 [11]: > 4000 mg/kg | Activity (Matricaria chamomilla [12]): 0% | Activity (Papaver rhoeas [13]): 0% | Activity (Avena fatua): 30% | Activity (Xanthium strumarium): 0%
